The values that follow come from patent publication US20200399264A1, “4-SUBSTITUTED-2-THIAZOLE AMIDES AS ANTIVIRAL AGENTS” (Southern Research Institute, priority 2019, published 2020).

Molecules are shown by their SMILES.

The subject of one data set is CHIKV. Description: antiviral activity against CHIKV (VTR and EC90). Type of data set: cell-based. The settings on record: Chikungunya virus; for log reduction at 10 µM: read-out: VTR @ 10 μM (logs). From the text: As used herein, “EC90,” is intended to refer to the concentration of a substance (e.g., a compound or a drug) that is required for 90% agonism of a biological process, or component of a process, including a protein, subunit, organelle, ribonucleoprotein, etc. In one aspect, an EC90 can refer to the concentration of a substance that is required for 90% agonism in vivo, as further defined elsewhere herein. In a further aspect, […].

A short description of data set [1]: cell cytotoxicity in a cell viability assay (CC50). To be noted: concentration required for 50% cell survival. The data set is classed as cell-based. From the text: As used herein, “CC50,” is intended to refer to the cell cytotoxicity to the concentration of a substance (e.g., a compound or a drug) that is required for 50% cell survival in a cell viability assay in vitro.

For `CSc1ncccc1C(=O)Nc1nc(-c2cccc(-c3ccc(C#N)cn3)c2)cs1` [Compound 14, N-(4-(3-(5-Cyanopyridin-2-yl)phenyl)thiazol-2-yl)-2-(methylthio)nicotinamide], in the data set on CHIKV, the EC90 (commonly the concentration at which the effect reaches the 90% level) was determined as 0.62 µM and the log reduction at 10 µM stood at 6. For the same molecule, the CC50 – broadly, the concentration giving 50% cytotoxicity – in data set [1] was greater than 40 µM.
In the case of `CSc1ncccc1C(=O)Nc1nc(-c2cccc(-c3cccc(C#N)c3)c2)cs1` [Compound 5, N-(4-(3′-Cyano-[1,1′-biphenyl]-3-yl)thiazol-2-yl)-2-(methylthio)nicotinamide], in the data set with CHIKV, the concentration for an effect of 90% (EC90) was determined as 0.098 µM and the log reduction at 10 µM is 5.25. For the same molecule, the half-maximal cytotoxic concentration (CC50) in data set [1] is greater than 40 µM.
Regarding `CC(C)(C)c1cnc(C(=O)Nc2nc(-c3cccc(-c4ccc(C#N)cc4)c3)cs2)nc1` [Compound 8, 5-(Tert-butyl)-N-(4-(4′-cyano-[1,1′-biphenyl]-3-yl)thiazol-2-yl)pyrimidine-2-carboxamide], in the data set with CHIKV, the log reduction at 10 µM was less than 1. The same molecule gave a cytotoxic concentration (CC50) in data set [1] greater than 40 µM.
In the same order, the values of `COC(=O)c1cc(-c2ccc(C#N)cc2)cc(-c2csc(NC(=O)c3cccnc3SC)n2)c1` [Compound 20, Methyl 4′-cyano-5-(2-(2-(methylthio)nicotinamido)thiazol-4-yl)-[1,1′-biphenyl]-3-carboxylate] are 3.23 and 17.6 µM.
Take `CSc1ncccc1C(=O)Nc1nc(-c2cccc(Nc3ccc(C)c(C#N)c3)c2)cs1` [Compound 48, N-(4-(3-((3-cyano-4-methylphenyl)amino)phenyl)thiazol-2-yl)-2-(methylthio)nicotinamide]: in the data set on CHIKV, the EC90 was 0.89 µM and the log reduction at 10 µM amounted to 4.52. The same molecule displayed a CC50 in data set [1] greater than 40 µM.
With `CSc1ncccc1C(=O)Nc1nc(-c2cccc(Oc3ccccc3)c2)cs1` [Compound 36, 2-methylsulfanyl-N-[4-(3-phenoxyphenyl)thiazol-2-yl]pyridine-3-carboxamide], in the data set with CHIKV, the log reduction at 10 µM was found to be 4.87. In data set [1], this molecule yielded a CC50 greater than 40 µM.
Regarding `CC(C)(C)c1ccc(C(=O)Nc2nc(-c3cccc(-c4ccc(CN)cc4)c3)cs2)cc1` [Compound 27, N-(4-(4′-(Aminomethyl)-[1,1′-biphenyl]-3-yl)thiazol-2-yl)-4-(tert-butyl)benzamide], in the data set on CHIKV, the EC90 came to 1.27 µM and the log reduction at 10 µM worked out at 5.24. Also, the CC50 in data set [1] stood at 9.02 µM.
The like results for `CSc1ncccc1C(=O)Nc1nc(-c2cccc(-c3ccc(C#N)cc3)c2)cs1` [Compound 4, N-(4-(4′-Cyano-[1,1′-biphenyl]-3-yl)thiazol-2-yl)-2-(methylthio)nicotinamide] were, in that order, 0.31 µM, 4.73 and greater than 40 µM.
The like results for `CSc1ncccc1C(=O)Nc1nc(-c2cccc(-n3ccnc3)c2)cs1` [Compound 29, N-(4-(3-(1H-imidazol-1-yl)phenyl)thiazol-2-yl)-2-(methylthio)nicotinamide] were, in that order, 0.27 µM, 1.39 and greater than 40 µM.
In the same order, the values of `COC(=O)C12CC(C(=O)Nc3nc(-c4cccc(Nc5ccc(C#N)cc5)c4)cs3)(C1)C2` [Compound 43, Methyl 3-((4-(3-((4-cyanophenyl)amino)phenyl)thiazol-2-yl)carbamoyl)bicyclo[1.1.1]pentane-1-carboxylate] are 10.1 µM, 0.74 and 13 µM.
Regarding `CSc1ncccc1C(=O)Nc1nc(-c2cccc(-c3ccc(C(N)=O)cc3)c2)cs1` [Compound 25, N-(4-(4′-Carbamoyl-[1,1′-biphenyl]-3-yl)thiazol-2-yl)-2-(methylthio)nicotinamide], in the data set with CHIKV, the EC90 was 0.21 µM and the log reduction at 10 µM was 2.43. The same molecule displayed a CC50 in data set [1] of 17.9 µM.
For the molecule `CSc1ncccc1C(=O)Nc1nc(-c2cccc(-c3ccncc3)c2)cs1` [Compound 3, 2-(Methylthio)-N-(4-(3-(pyridin-4-yl)phenyl)thiazol-2-yl)nicotinamide], the log reduction at 10 µM in the data set with CHIKV was less than 1. In addition, the CC50 in data set [1] is greater than 40 µM.
With `CC(C)(C)c1ccc(C(=O)Nc2nc(-c3cccc(-c4ccc(C#N)cc4)c3)cs2)cc1` [Compound 9, 4-(Tert-butyl)-N-(4-(4′-cyano-[1,1′-biphenyl]-3-yl)thiazol-2-yl)benzamide], in the data set on CHIKV, the EC90 came to 0.28 µM and the log reduction at 10 µM amounted to 4.68. In data set [1], this molecule came in with a CC50 greater than 40 µM.
As to `CSc1ncccc1C(=O)Nc1nc(-c2cncc(-c3ccc(C#N)cc3)c2)cs1` [Compound 12, N-(4-(5-(4-Cyanophenyl)pyridin-3-yl)thiazol-2-yl)-2-(methylthio)nicotinamide], in the data set on CHIKV, the log reduction at 10 µM is less than 1. The CC50 in data set [1] is greater than 40 µM.
As to `CSc1ncccc1C(=O)Nc1nc(-c2cccc(-c3ccc(C#N)c(O)c3)c2)cs1` [Compound 22, N-(4-(4′-Cyano-3′-hydroxy-[1,1′-biphenyl]-3-yl)thiazol-2-yl)-2-(methylthio)nicotinamide], in the data set on CHIKV, the EC90 amounted to 1.6 µM and the log reduction at 10 µM is 8.5. In data set [1], this molecule showed a CC50 greater than 30 µM.
The like results for `CSc1ncccc1C(=O)Nc1nc(-c2cc(Nc3ccc(C#N)cc3)cc(N3CCOCC3)c2)cs1` [Compound 47, N-(4-(3-((4-cyanophenyl)amino)-5-morpholinophenyl)thiazol-2-yl)-2-(methylthio)nicotinamide] were, in that order, 0.1 µM, 5.14 and greater than 40 µM.
The like results for `COc1c(F)cc(C(=O)Nc2nc(-c3cccc(-c4ccc(C#N)cc4)c3)cs2)cc1F` [Compound 10, N-(4-(4′-Cyano-[1,1′-biphenyl]-3-yl)thiazol-2-yl)-3,5-difluoro-4-methoxybenzamide] were, in that order, 0.31 µM, 7.6 and greater than 30 µM.
As for `CSc1ncccc1C(=O)Nc1nc(-c2cccc(-c3ccc(F)nc3)c2)cs1` [Compound 16, N-(4-(3-(6-Fluoropyridin-3-yl)phenyl)thiazol-2-yl)-2-(methylthio)nicotinamide], in the data set with CHIKV, the EC90 stood at 0.33 µM and the log reduction at 10 µM was 6.09. The molecule further yielded a CC50 in data set [1] greater than 30 µM.
The like results for `CC(C)(C#N)c1ccc(C(=O)Nc2nc(-c3cccc(Nc4ccc(C#N)cc4)c3)cs2)cc1` [Compound 44, N-(4-(3-((4-cyanophenyl)amino)phenyl)thiazol-2-yl)-4-(2-cyanopropan-2-yl)benzamide] were, in that order, 0.98 µM, 2.65 and greater than 40 µM.
As to `CC(C)(C)c1ccc(C(=O)Nc2nc(-c3cccc(Nc4ccc(C#N)cc4)c3)cs2)nc1` [Compound 41, 5-(Tert-Butyl)-N-(4-(3-((4-cyanophenyl)amino)phenyl)thiazol-2-yl)picolinamide], in the data set on CHIKV, the EC90 is greater than 10 µM and the log reduction at 10 µM was determined as 0.82. In data set [1], this molecule came in with a CC50 greater than 40 µM.
For `COc1ccc(-c2ccc(C#N)cc2)cc1-c1csc(NC(=O)c2cccnc2SC)n1` [Compound 18, N-(4-(4′-Cyano-4-methoxy-[1,1′-biphenyl]-3-yl)thiazol-2-yl)-2-(methylthio)nicotinamide], the log reduction at 10 µM with CHIKV turned out to be 1.73. Moreover, the CC50 in data set [1] was greater than 40 µM.
With `CSc1ncccc1C(=O)Nc1nc(-c2cccc(N3CCNCC3)c2)cs1` [Compound 31, 2-(Methylthio)-N-(4-(3-(piperazin-1-yl)phenyl)thiazol-2-yl)nicotinamide], in the data set on CHIKV, it took 9.1 µM to reach the 90% level (EC90) and the log reduction at 10 µM is 8.69. The molecule further yielded a CC50 in data set [1] greater than 30 µM.
As to `N#Cc1ccc(-c2cccc(-c3csc(NC(=O)c4cccnc4C(F)(F)F)n3)c2)cc1` [Compound 7, N-(4-(4′-Cyano-[1,1′-biphenyl]-3-yl)thiazol-2-yl)-2-(trifluoromethyl)nicotinamide], in the data set on CHIKV, the log reduction at 10 µM was 5.09. Besides, the CC50 in data set [1] was found to be 8.07 µM.
